# Molecular target: human cGAS (residues 161-522) (Homo sapiens (Human), UniProt Q8N884)
# Assay: Malachite Green assay to measure cGAS activity (coupled enzymatic assay, phosphate detection)
# Format: biochemical
# Settings: recombinant human cGAS (residues 161-522) 25 nM, 80 μM GTP, 100 nM ISD, 4 hour at RT, absorbance 620 nm
# Procedure: Malachite Green Assay to Measure cGAS Activity Compounds were tested for cGAS inhibition in a coupled enzymatic assay based on Phosphate detection by Malachite Green. Final assay conditions were 20 mM TRIS pH 7.5 (Applichem), 5 mM MgCl2 (Sigma) and 0.01% BSA (Sigma) supplemented with […] (Sigma), 80 μM GTP (Sigma) and 100 nM Interferon Stimulating DNA (ISD) (Microsynth). Recombinantly expressed purified human cGAS (residues 161-522) was used at 25 nM. All compounds were prepared as 10 mM stock solutions in DMSO and a 16 pt dilution series in DMSO with a dilution factor of 2.5 was prepared. 1 μL of DMSO dilution series was transferred to 32.3 μL reaction buffer, mixed by pipetting up/down, spun for 1 minute at 3000 rpm and was visually inspected for precipitation. 5 μL of 3-fold enzyme stock solution were transferred to an empty 384-well Black/Clear Flat Bottom Polystyrene NBS (Corning) rows 3-24. Rows 1-2 were filled with assay buffer. Plates were spun 10 seconds at 1000 rpm (164×g). 5 μL of compound intermediate dilution was added and mixed by pipetting up/down to rows 3-24. Rows 1-2 were filled with 3.1% DMSO assay buffer. Plates were spun 10 seconds at 1000 rpm (164×g). 5 μL 3-fold Nucleotide/DNA mix was added to all wells to start the reaction. Plates were spun 10 seconds at 1000 rpm (164×g) and incubated for 4 hour at room temperature (RT) in the dark. 5 μL 4 U/mL PPase (Sigma) were added to all wells. Plates spun 10 seconds at 1000 rpm (164×g). 10 μL BioMol green Solution (Enzo Life Sciences) was added to all wells. Plates spun 10 seconds at 1000 rpm (164×g) and incubated 30 minutes at RT in the dark. Absorbance data was collected 620 nm on an EnVision Multilable Reader (Perkin Elmer) and the following measurement settings were used: excitation filter photometric was 620 nm; excitation from the top; measurement height was 1 mm; number of flashes was 30; number of flashes integrated was 1. All plates are checked for abnormalities and outliers in the Blank Control (no protein, row 1) and the Neutral Control (no compound, row 2) are excluded using the 3*SD rule. Data was normalized to 0 and 100% by Blank and Neutral Control and each curve was fitted and judged using the 4 parameter logistic equation to determine the IC50 for cGAS inhibition. Table 1 provides IC50 values (μM) for cGAS inhibition obtained for particular examples of the present invention as measured by the above-described assay.
# Chain of human cGAS (residues 161-522) (Q8N884 161-522): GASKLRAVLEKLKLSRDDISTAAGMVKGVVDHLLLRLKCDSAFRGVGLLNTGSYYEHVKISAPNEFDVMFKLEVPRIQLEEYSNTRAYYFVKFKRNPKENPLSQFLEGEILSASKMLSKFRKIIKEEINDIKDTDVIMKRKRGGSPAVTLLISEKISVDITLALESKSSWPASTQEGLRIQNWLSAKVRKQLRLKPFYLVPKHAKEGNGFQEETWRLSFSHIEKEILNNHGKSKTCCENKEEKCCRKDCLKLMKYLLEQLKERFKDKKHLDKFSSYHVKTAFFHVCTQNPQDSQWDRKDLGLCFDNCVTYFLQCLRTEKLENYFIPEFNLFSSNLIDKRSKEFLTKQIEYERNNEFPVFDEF
row,SMILES,IC50
1,"Cc1ccc(-c2cc(C(=O)O)c3nc(CN4CCC(O)CC4)[nH]c3c2)c(Cl)c1 [Example 21, 6-(2-Chloro-4-methylphenyl)-2-[(4-hydroxypiperidin-1-yl)methyl]-1H-benzimidazole-4-carboxylic acid]",410 nM
2,"Cc1ccc(-c2cc(C(=O)O)c3nc(CN(C)c4ccccc4)[nH]c3c2)c(Cl)c1 [Example 17, 6-(2-Chloro-4-methylphenyl)-2-[(N-methylanilino)methyl]-1H-benzimidazole-4-carboxylic acid]",1230 nM
3,"Cc1ccc(-c2cc(C(=O)O)c3nc(CN4CCN(c5ccccc5)CC4)[nH]c3c2)c(Cl)c1 [Example 19, 6-(2-Chloro-4-methylphenyl)-2-[(4-phenylpiperazin-1-yl)methyl]-1H-benzimidazole-4-carboxylic acid]",1250 nM
4,"Cc1cc(Cl)ccc1-c1cc(C(=O)O)c2nc[nH]c2c1 [Example 6, 6-(4-Chloro-2-methylphenyl)-1H-benzo[d]imidazole-4-carboxylic acid]",2080 nM
5,"O=C(O)c1cc(-c2ccc(C(F)(F)F)cc2Cl)cc2[nH]cnc12 [Example 5, 6-(2-Chloro-4-(trifluoromethyl)phenyl)-1H-benzo[d]imidazole-4-carboxylic acid]",3260 nM
6,"Cc1ccc(-c2cc(C(=O)O)c3nc[nH]c3c2)c(Cl)c1 [Example 3, 6-(2-Chloro-4-methylphenyl)-1H-benzo[d]imidazole-4-carboxylic acid]",550 nM
7,"Cc1ccc(-c2cc(C(=O)O)c3nc(Cc4ccccc4)[nH]c3c2)c(Cl)c1 [Example 26, 2-Benzyl-6-(2-chloro-4-methylphenyl)-1H-benzo[d]imidazole-4-carboxylic acid]",1020 nM
8,"Cc1ccc(-c2cc(C(=O)O)c3nc(CN4CCC(F)(F)CC4)[nH]c3c2)c(Cl)c1 [Example 15, 6-(2-Chloro-4-methylphenyl)-2-[(4,4-difluoropiperidin-1-yl)methyl]-1H-benzimidazole-4-carboxylic acid]",260 nM
9,"Cc1ccc(-c2cc(C(=O)O)c3nc(CN4CCN(C)CC4)[nH]c3c2)c(Cl)c1 [Example 22, 6-(2-Chloro-4-methylphenyl)-2-[(4-methylpiperazin-1-yl)methyl]-1-benzimidazole-4-carboxylic acid]",130 nM
10,"CC(=O)N1CCN(Cc2nc3c(C(=O)O)cc(-c4ccc(C)cc4Cl)cc3[nH]2)CC1 [Example 16, 2-[(4-Acetylpiperazin-1-yl)methyl]-6-(2-chloro-4-methylphenyl)-1H-benzimidazole-4-carboxylic acid]",1510 nM
11,"Cc1ccc(-c2cc(C(=O)O)c3nc(CN4CCN(Cc5ccccc5)C(=O)C4)[nH]c3c2)c(Cl)c1 [Example 10, 2-[(4-Benzyl-3-oxopiperazin-1-yl)methyl]-6-(2-chloro-4-methylphenyl)-1H-benzimidazole-4-carboxylic acid]",510 nM
12,"Cc1cc(Cl)c(-c2cc(C(=O)O)c3nc[nH]c3c2)cc1F [Example 2, 6-(2-Chloro-5-fluoro-4-methylphenyl)-1H-benzo[d]imidazole-4-carboxylic acid]",540 nM
13,"Cc1ccc(-c2cc(C(=O)O)c3nc(CN4CCNC(C(F)(F)F)C4)[nH]c3c2)c(Cl)c1 (centres unmarked) [Example 11, 6-(2-Chloro-4-methylphenyl)-2-[[3-(trifluoromethyl)piperazin-1-yl]methyl]-1H-benzimidazole-4-carboxylic acid]",600 nM
14,"O=C(O)c1cc(-c2ccc(C3CC3)cc2Cl)cc2[nH]cnc12 [Example 1, 6-(2-Chloro-4-cyclopropylphenyl)-1-benzimidazole-4-carboxylic acid]",4680 nM
15,"Cc1ccc(-c2cc(C(=O)O)c3nc(CN(C)C)[nH]c3c2)c(Cl)c1 [Example 29, 6-(2-Chloro-4-methylphenyl)-2-[(dimethylamino)methyl]-1H-benzimidazole-4-carboxylic acid]",590 nM
16,"Cc1ccc(-c2cc(C(=O)O)c3nc(CN4CCN(CC(F)(F)F)CC4)[nH]c3c2)c(Cl)c1 [Example 8, 6-(2-Chloro-4-methylphenyl)-2-((4-(2,2,2-trifluoroethyl)piperazin-1-yl)methyl)-1H-benzo[d]imidazole-4-carboxylic acid]",590 nM

row,SMILES,IC50
1,"Cc1ccc(-c2cc(C(=O)O)c3nc(NCc4ccccc4)[nH]c3c2)c(Cl)c1 [Example 31, 2-(Benzylamino)-6-(2-chloro-4-methylphenyl)-1H-benzo[d]imidazole-4-carboxylic acid]",840 nM
2,"Cc1ccc(-c2cc(C(=O)O)c3nc(CN4CCNC(=O)C4)[nH]c3c2)c(Cl)c1 [Example 20, 6-(2-Chloro-4-methylphenyl)-2-[(3-oxopiperazin-1-yl)methyl]-1H-benzimidazole-4-carboxylic acid]",590 nM
3,"CCOc1ccc(-c2cc(C(=O)O)c3nc[nH]c3c2)c(Cl)c1 [Example 4, 6-(2-Chloro-4-ethoxyphenyl)-1H-benzo[d]imidazole-4-carboxylic acid]",4370 nM
4,"Cc1ccc(-c2cc(C(=O)O)c3nc(CN4CCN(C)CC4=O)[nH]c3c2)c(Cl)c1 [Example 12, 6-(2-Chloro-4-methylphenyl)-2-[(4-methyl-2-oxopiperazin-1-yl)methyl]-1H-benzimidazole-4-carboxylic acid]",1140 nM
5,"Cc1ccc(-c2cc(C(=O)O)c3nc(CN4CCN(C5CC5)CC4)[nH]c3c2)c(Cl)c1 [Example 9, 6-(2-Chloro-4-methylphenyl)-2-[(4-cyclopropylpiperazin-1-yl)methyl]-1H-benzimidazole-4-carboxylic acid]",380 nM
6,"Cc1ccc(-c2cc(C(=O)O)c3nc(CN4CCN(Cc5ccccc5)CC4)[nH]c3c2)c(Cl)c1 [Example 18, 2-[(4-Benzylpiperazin-1-yl)methyl]-6-(2-chloro-4-methylphenyl)-1H-benzimidazole-4-carboxylic acid]",140 nM
7,"Cc1ccc(-c2cc(C(=O)O)c3nc(CN4CCN5C(=O)CCC5C4)[nH]c3c2)c(Cl)c1 (centres unmarked) [Example 7, 6-(2-Chloro-4-methylphenyl)-2-[(6-oxo-1,3,4,7,8,8a-hexahydropyrrolo[1,2-a]pyrazin-2-yl)methyl]-1H-benzimidazole-4-carboxylic acid]",260 nM
8,"Cc1ccc(-c2cc(C(=O)O)c3nc(CO)[nH]c3c2)c(Cl)c1 [Example 13, 6-(2-Chloro-4-methylphenyl)-2-(hydroxymethyl)-1H-benzimidazole-4-carboxylic acid]",550 nM
9,Cc1ccc(-c2cc(C(=O)O)c3nc(C)[nH]c3c2)c(Cl)c1 [Example 32],2410 nM
10,"Cc1ccc(-c2cc(C(=O)O)c3nc(Cc4ccc(Cl)cc4)[nH]c3c2)c(Cl)c1 [Example 27, 6-(2-Chloro-4-methylphenyl)-2-[(4-chlorophenyl)methyl]-1H-benzimidazole-4-carboxylic acid]",1480 nM
11,"CCN(CC)Cc1nc2c(C(=O)O)cc(-c3ccc(C)cc3Cl)cc2[nH]1 [Example 23, 6-(2-Chloro-4-methylphenyl)-2-(diethylaminomethyl)-1-benzimidazole-4-carboxylic acid]",480 nM
12,"Cc1ccc(-c2cc(C(=O)O)c3nc(Nc4ccccc4)[nH]c3c2)c(Cl)c1 [Example 14, 6-(2-Chloro-4-methylphenyl)-2-(phenylamino)-1H-benzo[d]imidazole-4-carboxylic acid]",1160 nM
13,"Cc1ccc(-c2cc(C(=O)O)c3nc(C(F)(F)F)[nH]c3c2)c(Cl)c1 [Example 30, 6-(2-Chloro-4-methylphenyl)-2-(trifluoromethyl)-1H-benzimidazole-4-carboxylic acid]",3020 nM
14,"Cc1ccc(-c2cc(C(=O)O)c3nc(CN4CCCCC4)[nH]c3c2)c(Cl)c1 [Example 24, 6-(2-Chloro-4-methylphenyl)-2-(piperidin-1-ylmethyl)-1H-benzimidazole-4-carboxylic acid]",360 nM
15,"Cc1ccc(-c2cc(C(=O)O)c3nc(CNc4ccccc4)[nH]c3c2)c(Cl)c1 [Example 25, 2-(Anilinomethyl)-6-(2-chloro-4-methylphenyl)-1H-benzimidazole-4-carboxylic acid]",690 nM
16,"Cc1ccc(-c2cc(C(=O)O)c3nc(CN4CCOCC4)[nH]c3c2)c(Cl)c1 [Example 28, 6-(2-Chloro-4-methylphenyl)-2-(morpholin-4-ylmethyl)-1H-benzimidazole-4-carboxylic acid]",350 nM
